Assay results taken from patent US20200181095A1, “SELECTIVE MATRIX METALLOPROTEINASE-13 INHIBITORS” (FLORIDA ATLANTIC UNIVERSITY BOARD OF TRUSTEES, priority 2017, published 2020).
Values joined by “and” are separate entries in the source; they are usually repeats but may differ in a detail not shown here. Identical values can stand only once. Like-named read-outs stand apart in the source and are kept apart here. Blank lines part the entries; values can stand above or below the compound they belong to.

Assays:
Type in all cases: biochemical
MMP-13 [1] = target: T1, MMP-13 (Homo sapiens, UniProt P45452); assay: MMP-13 IC50 enzyme assay with fTHP-15 substrate; details: for IC50: fTHP substrate
T1 construct: purchased R&D Systems 511-MM
Experimental: Inhibitor kinetics: Inhibition experiments were conducted as described previously.^3 Briefly, fTHP-15, MMP-13, and inhibitor working solutions were prepared in EAB.
The enzyme was allowed to incubate with the test compounds for 30 min at 25° C. The assays were initiated by addition of 5 μL of fTHP-15 or Knight substrate and immediately placed in the microplate reader to record fluorescence.
To determine IC50 values of each compound, the relative fluorescence units (RFU) from wells containing MMP-13, fTHP-15, and inhibitors were plotted vs. no-enzyme and untreated controls.

MMP-13 [2] = target: T1, MMP-13; assay: MMP-13 inhibition constant (Ki) determination, fTHP-15; details: fTHP-15 substrate, 4 nM MMP-13, mixed inhibition model
Experimental: Rates of hydrolysis were obtained from plots of fluorescence versus time using data points from only the linear portion of the hydrolysis curve.
KM values were determined by nonlinear regression analysis using the one-site hyperbolic binding model^4 and additionally evaluated by linear analysis. All Ki values were determined by nonlinear regression (hyperbolic equation) analysis using the mixed inhibition model, which allows for simultaneous determination of the mechanism of inhibition, The mechanism of inhibition was determined using the “α” parameter derived from a mixed-model inhibition by GraphPad Prism. The mechanism of inhibition was additionally confirmed by Lineweaver-Burke plots.

MMP-8 = target: T2, MMP-8 (Homo sapiens, UniProt P22894); assay: Selectivity assay MMP-8 (fTHP-15); details: 200 nM
T2 construct: purchased R&D Systems
Experimental: (§1) All enzymes were purchased from R&D Systems and activated according to manufacturer's instructions. Upon activation, each enzyme was diluted in EAB to […] and stored at −80° C. until further use. […]

MMP-2 = target: T3, MMP-2 (Homo sapiens, UniProt P08253); assay: Selectivity assay MMP-2 (fTHP-15); details: 200 nM
T3 construct: purchased R&D Systems
Experimental: as §1

MMP-12 [3] = target: T4, MMP-12 (Homo sapiens, UniProt P39900); assay: Protease selectivity profiling; details: single stranded peptide substrate; inhibitor 1 mM (footnote; text 1 μM); duplicates
T4 sequence (P39900 106-470, species assumed): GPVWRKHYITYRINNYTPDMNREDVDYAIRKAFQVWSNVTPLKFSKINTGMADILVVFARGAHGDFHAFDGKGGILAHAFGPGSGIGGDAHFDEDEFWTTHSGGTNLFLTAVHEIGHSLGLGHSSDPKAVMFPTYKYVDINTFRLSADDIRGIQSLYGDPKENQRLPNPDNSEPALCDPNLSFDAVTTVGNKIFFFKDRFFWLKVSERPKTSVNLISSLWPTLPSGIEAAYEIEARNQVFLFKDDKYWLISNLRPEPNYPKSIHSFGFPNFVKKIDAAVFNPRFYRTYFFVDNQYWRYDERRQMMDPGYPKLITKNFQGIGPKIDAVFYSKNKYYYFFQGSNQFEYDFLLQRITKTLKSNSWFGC

IDE = IDE (Homo sapiens, UniProt P14735); assay: Protease selectivity profiling; set-up: inhibition: dose or concentration left out as unconfirmed
Sequence of IDE (P14735 whole entry, species assumed): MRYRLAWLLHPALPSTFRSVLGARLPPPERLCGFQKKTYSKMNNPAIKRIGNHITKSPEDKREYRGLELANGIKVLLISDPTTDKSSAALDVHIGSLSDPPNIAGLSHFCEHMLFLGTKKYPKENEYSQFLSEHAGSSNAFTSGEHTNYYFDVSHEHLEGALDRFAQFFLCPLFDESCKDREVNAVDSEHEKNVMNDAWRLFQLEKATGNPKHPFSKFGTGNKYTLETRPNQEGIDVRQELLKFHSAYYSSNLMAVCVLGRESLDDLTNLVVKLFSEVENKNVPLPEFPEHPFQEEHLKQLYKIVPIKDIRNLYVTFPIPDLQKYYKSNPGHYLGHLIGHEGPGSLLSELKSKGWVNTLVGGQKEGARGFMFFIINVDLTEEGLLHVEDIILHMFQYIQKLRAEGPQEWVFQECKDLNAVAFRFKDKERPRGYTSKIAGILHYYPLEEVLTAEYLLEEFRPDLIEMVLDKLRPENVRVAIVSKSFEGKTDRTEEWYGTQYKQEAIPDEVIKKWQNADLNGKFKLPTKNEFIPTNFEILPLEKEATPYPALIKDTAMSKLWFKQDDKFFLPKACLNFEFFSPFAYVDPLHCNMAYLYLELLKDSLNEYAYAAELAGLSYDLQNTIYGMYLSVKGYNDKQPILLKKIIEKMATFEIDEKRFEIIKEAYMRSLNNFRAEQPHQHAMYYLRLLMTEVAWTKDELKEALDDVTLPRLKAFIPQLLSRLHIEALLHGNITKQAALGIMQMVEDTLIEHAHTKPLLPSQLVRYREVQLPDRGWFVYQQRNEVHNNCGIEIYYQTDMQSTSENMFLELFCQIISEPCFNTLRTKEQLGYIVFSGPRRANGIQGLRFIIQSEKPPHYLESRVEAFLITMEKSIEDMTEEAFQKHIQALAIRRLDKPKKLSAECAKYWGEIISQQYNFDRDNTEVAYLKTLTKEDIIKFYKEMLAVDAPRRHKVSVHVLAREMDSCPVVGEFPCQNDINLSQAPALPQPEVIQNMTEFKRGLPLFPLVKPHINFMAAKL

ACE2 = ACE2 (Homo sapiens, UniProt Q9BYF1); assay: Protease selectivity profiling; set-up: inhibition: dose or concentration left out as unconfirmed
Sequence of ACE2 (Q9BYF1 18-805, species assumed): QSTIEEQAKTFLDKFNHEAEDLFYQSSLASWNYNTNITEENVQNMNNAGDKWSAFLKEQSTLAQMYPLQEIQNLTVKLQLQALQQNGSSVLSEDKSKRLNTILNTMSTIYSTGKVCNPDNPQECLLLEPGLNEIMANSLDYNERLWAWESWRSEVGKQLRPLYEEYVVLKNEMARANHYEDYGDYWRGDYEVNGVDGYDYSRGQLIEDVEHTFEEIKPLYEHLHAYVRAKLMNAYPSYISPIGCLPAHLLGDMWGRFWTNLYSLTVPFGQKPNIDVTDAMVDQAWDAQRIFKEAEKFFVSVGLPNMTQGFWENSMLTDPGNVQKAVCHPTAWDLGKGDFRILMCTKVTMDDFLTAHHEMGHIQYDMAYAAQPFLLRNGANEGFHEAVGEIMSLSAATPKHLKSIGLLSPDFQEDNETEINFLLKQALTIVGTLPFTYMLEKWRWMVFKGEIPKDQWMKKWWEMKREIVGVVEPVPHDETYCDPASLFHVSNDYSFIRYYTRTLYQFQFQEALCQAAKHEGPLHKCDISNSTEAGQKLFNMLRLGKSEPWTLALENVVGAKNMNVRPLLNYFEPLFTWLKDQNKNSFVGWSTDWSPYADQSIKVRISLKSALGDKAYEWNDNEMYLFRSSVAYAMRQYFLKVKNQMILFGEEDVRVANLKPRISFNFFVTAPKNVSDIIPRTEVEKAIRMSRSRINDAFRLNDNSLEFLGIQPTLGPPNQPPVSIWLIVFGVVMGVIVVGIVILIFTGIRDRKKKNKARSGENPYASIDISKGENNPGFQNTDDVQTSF

Cathepsin-S = Cathepsin-S (Homo sapiens, UniProt P25774); assay: Protease selectivity profiling; set-up: inhibition: dose or concentration left out as unconfirmed
MMP-12 [4] = target: T4, MMP-12; assay: Additional specificity assay, 10-point dilution IC50
ACE = ACE (Homo sapiens, UniProt P12821); assay: Protease selectivity profiling; set-up: inhibition: dose or concentration left out as unconfirmed
TACE = TACE (Homo sapiens, UniProt P78536); assay: Protease selectivity profiling; set-up: inhibition: dose or concentration left out as unconfirmed
Sequence of TACE (P78536 215-824): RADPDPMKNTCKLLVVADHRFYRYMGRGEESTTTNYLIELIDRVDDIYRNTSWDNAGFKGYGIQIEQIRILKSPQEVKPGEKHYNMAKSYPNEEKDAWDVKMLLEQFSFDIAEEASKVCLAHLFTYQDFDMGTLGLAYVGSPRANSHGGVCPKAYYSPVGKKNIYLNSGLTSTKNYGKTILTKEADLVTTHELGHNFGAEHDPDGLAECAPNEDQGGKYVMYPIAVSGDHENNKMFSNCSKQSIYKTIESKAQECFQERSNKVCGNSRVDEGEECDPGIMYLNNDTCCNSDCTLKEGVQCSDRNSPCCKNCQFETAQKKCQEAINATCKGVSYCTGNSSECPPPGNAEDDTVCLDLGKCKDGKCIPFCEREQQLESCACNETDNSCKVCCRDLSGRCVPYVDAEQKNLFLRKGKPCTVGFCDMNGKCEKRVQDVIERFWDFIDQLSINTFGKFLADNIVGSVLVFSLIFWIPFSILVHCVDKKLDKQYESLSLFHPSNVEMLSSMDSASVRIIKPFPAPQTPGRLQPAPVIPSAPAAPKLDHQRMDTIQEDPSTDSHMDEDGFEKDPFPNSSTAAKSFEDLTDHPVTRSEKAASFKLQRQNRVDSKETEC

Caspase-1 = Caspase-1 (Homo sapiens, UniProt P29466); assay: Protease selectivity profiling; set-up: inhibition: dose or concentration left out as unconfirmed
Sequence of Caspase-1 (P29466 120-297 limits assumed, species assumed): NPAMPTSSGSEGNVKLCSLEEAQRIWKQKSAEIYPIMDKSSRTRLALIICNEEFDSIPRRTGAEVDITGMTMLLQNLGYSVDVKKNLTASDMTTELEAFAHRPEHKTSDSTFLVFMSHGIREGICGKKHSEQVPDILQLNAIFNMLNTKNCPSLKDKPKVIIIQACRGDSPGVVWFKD
Sequence of Caspase-1 (P29466 317-404 limits assumed, species assumed): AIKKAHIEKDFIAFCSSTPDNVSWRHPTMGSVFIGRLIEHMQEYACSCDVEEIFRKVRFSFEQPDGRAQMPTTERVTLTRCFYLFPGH

MMP-7 = MMP-7 (Homo sapiens, UniProt P09237); assay: Protease selectivity profiling; set-up: inhibition: dose or concentration left out as unconfirmed
Caspase-7 = Caspase-7 (Homo sapiens, UniProt P55210); assay: Protease selectivity profiling; set-up: inhibition: dose or concentration left out as unconfirmed
BACE-1 = BACE-1 (Homo sapiens, UniProt P56817); assay: Protease selectivity profiling; set-up: inhibition: dose or concentration left out as unconfirmed
Cathepsin-L = Cathepsin-L (Homo sapiens, UniProt P07711); assay: Protease selectivity profiling; set-up: inhibition: dose or concentration left out as unconfirmed
Sequence of Cathepsin-L (P07711 114-333, species assumed): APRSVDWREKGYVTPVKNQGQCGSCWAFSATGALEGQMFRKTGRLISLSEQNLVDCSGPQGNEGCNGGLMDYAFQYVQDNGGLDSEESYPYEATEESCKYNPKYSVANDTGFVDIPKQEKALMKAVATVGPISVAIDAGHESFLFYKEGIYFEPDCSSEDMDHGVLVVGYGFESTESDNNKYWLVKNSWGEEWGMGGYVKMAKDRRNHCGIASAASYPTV

Cathepsin-K = Cathepsin-K (Homo sapiens, UniProt P43235); assay: Protease selectivity profiling; set-up: inhibition: dose or concentration left out as unconfirmed
Sequence of Cathepsin-K (P43235 115-329, species assumed): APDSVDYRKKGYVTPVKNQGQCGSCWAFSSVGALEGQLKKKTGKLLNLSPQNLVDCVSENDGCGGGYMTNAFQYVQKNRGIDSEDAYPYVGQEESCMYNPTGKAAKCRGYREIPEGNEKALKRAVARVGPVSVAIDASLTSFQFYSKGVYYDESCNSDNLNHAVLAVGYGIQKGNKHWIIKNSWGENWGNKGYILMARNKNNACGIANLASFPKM

Neprilysin = Neprilysin (Homo sapiens, UniProt P08473); assay: Protease selectivity profiling; set-up: inhibition: dose or concentration left out as unconfirmed
Sequence of Neprilysin (P08473 whole entry, species assumed): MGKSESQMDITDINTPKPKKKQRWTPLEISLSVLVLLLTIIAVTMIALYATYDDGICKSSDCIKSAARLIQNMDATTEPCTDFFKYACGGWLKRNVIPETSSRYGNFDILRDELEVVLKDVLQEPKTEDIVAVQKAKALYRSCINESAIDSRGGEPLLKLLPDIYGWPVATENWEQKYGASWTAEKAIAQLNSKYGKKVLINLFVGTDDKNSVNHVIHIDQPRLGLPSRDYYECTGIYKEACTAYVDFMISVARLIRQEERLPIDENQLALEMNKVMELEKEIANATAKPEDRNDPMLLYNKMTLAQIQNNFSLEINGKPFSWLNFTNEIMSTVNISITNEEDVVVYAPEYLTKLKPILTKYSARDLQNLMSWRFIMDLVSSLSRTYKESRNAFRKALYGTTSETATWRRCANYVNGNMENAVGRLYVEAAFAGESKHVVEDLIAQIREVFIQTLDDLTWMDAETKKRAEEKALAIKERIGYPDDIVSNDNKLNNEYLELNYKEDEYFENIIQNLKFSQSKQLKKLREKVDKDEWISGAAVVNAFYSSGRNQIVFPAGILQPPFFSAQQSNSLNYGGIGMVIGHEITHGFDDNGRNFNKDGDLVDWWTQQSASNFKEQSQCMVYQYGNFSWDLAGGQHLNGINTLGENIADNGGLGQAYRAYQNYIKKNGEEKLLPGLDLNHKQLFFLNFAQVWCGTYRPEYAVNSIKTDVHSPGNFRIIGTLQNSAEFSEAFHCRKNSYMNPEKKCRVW

Thrombin = Thrombin (Homo sapiens, UniProt P00734); assay: Protease selectivity profiling; details: read-out: % Inhibition Thrombin
Factor-XA = target: T5, Factor-XA (Homo sapiens, UniProt P00742); assay: Protease selectivity profiling; set-up: inhibition: dose or concentration left out as unconfirmed
T5 construct: Factor-XA

Caspase-6 = Caspase-6 (Homo sapiens, UniProt P55212); assay: Protease selectivity profiling; set-up: inhibition: dose or concentration left out as unconfirmed
Sequence of Caspase-6 (P55212 24-179 limits assumed, species assumed): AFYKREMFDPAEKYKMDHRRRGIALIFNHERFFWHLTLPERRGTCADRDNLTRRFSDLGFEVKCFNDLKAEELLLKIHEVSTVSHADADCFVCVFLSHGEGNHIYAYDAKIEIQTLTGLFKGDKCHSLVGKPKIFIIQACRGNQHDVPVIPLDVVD
Sequence of Caspase-6 (P55212 194-293 limits assumed, species assumed): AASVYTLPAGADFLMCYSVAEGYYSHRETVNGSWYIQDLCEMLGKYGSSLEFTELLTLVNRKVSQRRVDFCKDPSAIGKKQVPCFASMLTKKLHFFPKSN

MMP-3 = MMP-3 (Homo sapiens, UniProt P08254); assay: Protease selectivity profiling; details: single stranded peptide substrate; inhibitor (text 1 μM); duplicates
Caspase-2 = Caspase-2 (Homo sapiens, UniProt P42575); assay: Protease selectivity profiling; set-up: inhibition: dose or concentration left out as unconfirmed
Cathepsin-D = Cathepsin-D (Homo sapiens, UniProt P07339); assay: Protease selectivity profiling; set-up: inhibition: dose or concentration left out as unconfirmed
uPA = uPA (Homo sapiens, UniProt P00749); assay: Protease selectivity profiling; set-up: inhibition: dose or concentration left out as unconfirmed
Caspase-3 = Caspase-3 (Homo sapiens, UniProt P42574); assay: Protease selectivity profiling; set-up: inhibition: dose or concentration left out as unconfirmed
Sequence of Caspase-3 (P42574 29-175 limits assumed, species assumed): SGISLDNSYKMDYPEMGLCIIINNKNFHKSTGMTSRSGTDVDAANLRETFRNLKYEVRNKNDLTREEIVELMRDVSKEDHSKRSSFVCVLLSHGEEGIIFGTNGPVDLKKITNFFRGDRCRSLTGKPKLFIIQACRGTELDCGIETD
Sequence of Caspase-3 (P42574 176-277 limits assumed, species assumed): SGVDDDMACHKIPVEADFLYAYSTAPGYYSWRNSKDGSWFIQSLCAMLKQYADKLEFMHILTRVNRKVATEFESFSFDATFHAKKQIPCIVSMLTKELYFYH

Caspase-5 = Caspase-5 (Homo sapiens, UniProt P51878); assay: Protease selectivity profiling; set-up: inhibition: dose or concentration left out as unconfirmed
Furin = Furin (Homo sapiens, UniProt P09958); assay: Protease selectivity profiling; set-up: inhibition: dose or concentration left out as unconfirmed
ADAM10 = ADAM10 (Homo sapiens, UniProt O14672); assay: Protease selectivity profiling; set-up: inhibition: dose or concentration left out as unconfirmed
[5] = single stranded peptide substrate, inhibitor 1 µM, duplicates

Compound: CNC(=O)[C@H](NC(=O)c1ccc(-c2ccc(CSc3nc4c(c(=O)[nH]3)CCC4)cc2)o1)C(C)C [(R)-17a]
loss of inhibition activity vs. MMP-13 compared to the (S)-enantiomer (MMP-13 [1]): ca. 12 fold | IC50 (MMP-13 [1]): 72 nM

Compound: CC(C)[C@H](NS(=O)(=O)c1ccc(-c2ccc(CSc3nc4c(c(=O)[nH]3)CCC4)cc2)cc1)C(=O)O [(S)-10a]
Ki (MMP-13 [2]): 2.3 nM | IC50 (MMP-13 [1]): 2.2 nM

Compound: CNC(=O)[C@@H](NC(=O)c1ccc(-c2ccc(CSc3nc4c(c(=O)[nH]3)CCC4)cc2)o1)C(C)C [(S)-17a]
inhibition of MMP-8 in single dose assay (MMP-8): moderately active inhibitor | inhibition of MMP-2 in single dose assay (MMP-2): moderately active inhibitor | improvement of MMP-13 inhibition potency compared to 5 (MMP-13 [1]): ~1,000 fold | IC50 (MMP-13 [1]): 5.9 nM

Compound: CC(C)[C@@H](NS(=O)(=O)c1ccc(-c2ccc(CSc3nc4c(c(=O)[nH]3)CCC4)cc2)cc1)C(=O)O [Compound (R)-10a]
Ki (MMP-13 [2]): 1.6 nM | IC50 (MMP-13 [1]): 2.4 nM

Compound: CNC(=O)[C@@H](NC(=O)c1ccc(-c2ccc(CSc3nc4c(c(=O)[nH]3)CCC4)c(F)c2)o1)C(C)C [Compound (S)-17b]
inhibition (IDE; read-out: % Inhibition IDE): 0% | inhibition (ACE2; read-out: % Inhibition ACE2): 0% | inhibition (Cathepsin-S; read-out: % Inhibition Cathepsin-S): 2% | inhibition (ACE; read-out: % Inhibition ACE): 0% | inhibition (TACE; read-out: % Inhibition TACE): -3% | inhibition (Caspase-1; read-out: % Inhibition Caspase-1): 0% | inhibition (MMP-7; read-out: % Inhibition MMP-7): 4% | inhibition (Caspase-7; read-out: % Inhibition Caspase-7): 8% | inhibition (BACE-1; read-out: % Inhibition BACE-1): 0% | inhibition (Cathepsin-L; read-out: % Inhibition Cathepsin-L): 7% | inhibition (Cathepsin-K; read-out: % Inhibition Cathepsin-K): 2% | inhibition (Neprilysin; read-out: % Inhibition Neprilysin): -6% | inhibition (Thrombin): -8% | inhibition (Factor-XA; read-out: % Inhibition Factor-XA): 0% | inhibition (Caspase-6; read-out: % Inhibition Caspase-6): 0% | inhibition (Caspase-2; read-out: % Inhibition Caspase-2): 0% | inhibition (Cathepsin-D; read-out: % Inhibition Cathepsin-D): 0% | inhibition (uPA; read-out: % Inhibition uPA): 1% | inhibition (Caspase-3; read-out: % Inhibition Caspase-3): 0% | inhibition (Caspase-5; read-out: % Inhibition Caspase-5): 0% | inhibition (Furin; read-out: % Inhibition Furin): 0% | inhibition (ADAM10; read-out: % Inhibition ADAM10): 0%

Second part, the compound after the results:

Ki (MMP-13 [2]): 1.8 nM | IC50 (MMP-13 [1]): 1.6 nM
Compound: O=C(O)CNS(=O)(=O)c1ccc(-c2ccc(CSc3nc4c(c(=O)[nH]3)CCC4)cc2)cc1 [Compound 10b]

inhibition at 1000 µM (MMP-12 [3]): 40% | inhibition at 1 µM (IDE; [5]): 0% | inhibition at 1 µM (ACE2; [5]): 1% | inhibition at 1 µM (Cathepsin-S; [5]): 12% | less active as inhibitor of MMP-12 than as MMP-13 inhibitor (MMP-12 [4]): 140 fold | IC50 (MMP-12 [4]; fTHP substrates (footnote), 10-point dilution): 470 nM and 467 nM | inhibition at 1 µM (ACE; [5]): 7% | inhibition at 1 µM (TACE; [5]): 4% | inhibition at 1 µM (Caspase-1; [5]): 1% | inhibition at 1 µM (MMP-7; [5]): 7% | inhibition at 1 µM (Caspase-7; [5]): 1% | inhibition at 1 µM (BACE-1; [5]): 1% | inhibition at 1 µM (Cathepsin-L; [5]): 9% | inhibition at 1 µM (Cathepsin-K; [5]): 0% | inhibition at 1 µM (Neprilysin; [5]): 3% | inhibition (Thrombin; single stranded peptide substrate, inhibitor (text 1 μM), duplicates): -3% | inhibition at 1 µM (Factor-XA; [5]): 3% | inhibition at 1 µM (Caspase-6; [5]): 0% | inhibition (MMP-3): 13% | inhibition at 1 µM (Caspase-2; [5]): 0% | inhibition at 1 µM (Cathepsin-D; [5]): 3% | inhibition at 1 µM (uPA; [5]): 3% | inhibition at 1 µM (Caspase-3; [5]): 0% | inhibition at 1 µM (Caspase-5; [5]): 0% | inhibition at 1 µM (Furin; [5]): 0% | inhibition at 1 µM (ADAM10; [5]): 0%
Compound: NCCNS(=O)(=O)c1ccc(-c2ccc(CSc3nc4c(c(=O)[nH]3)CCC4)cc2)cc1 [Compound 10d]
